The test system of assay [1] is HCV replicon (NS5A-GFP) in GS4 cells. The experiment in a line: GFP-based flow cytometry assay for HCV replication (NS5A-GFP expression in GS4 replicon cells). It counts as cell-based, hepatitis C virus. As to conditions: for mean intensity of the GFP and percentage of GFP-positive cells: 100 units/ml IFN, 1 μM 2CMA, 2 μg/ml Cs A. On the procedure:
(§1) Flow cytometry and cell cycle analysis. Cells were routinely fixed in 2% paraformaldehyde before flow cytometry analysis, which was performed with a FACSCanto flow cytometer (BD Biosciences). Live cell sorting was performed under sterile conditions with a FACSAria flow cytometer (BD Biosciences). The approximately 5% of cells (2×10^7 cells total) with the strongest GFP signal were sorted back for expansion at each round of live-cell sorting. For cell-cycle analysis, 1×10^6 cells were stained with 50 μg/ml propidium iodide in the presence of 200 μg/ml RNase A and 0.1% Triton X-100 for 30 minutes before being subjected to FACS analysis.
A novel GFP-based flow cytometry assay for HCV replication. Recently, a modified HCV replicon with the eGFP gene inserted into the coding region of NS5A has been generated for study of the subcellular localization of the HCV replication complex (16). […] When we subjected I/5A-GFP cells to flow-cytometry analysis, we found the GFP signal of the majority (˜70%) of the cells to be indistinguishable from that of Clone B, a replicon cell line without GFP but containing the same S2204I mutation in the NS5A gene (1) (FIG. 1). To obtain a cell line with minimal FACS-profile overlap with the GFP-negative replicon cells, we then performed consecutive rounds of cell sorting on I/5A-GFP-6 cells in which the cells with the strongest GFP were recovered. A population with no greater than 15% GFP-negative cells was obtained after four rounds of sorting and was used for the present study. We designated these cells GS4 (FIG. 1).
The GFP signal of these cells was then analyzed by flow cytometry 4 days after treatment with increasing amounts of inhibitors, including Interferon-α (IFN-α), 2′-Cmethyl-adenosine (2CMA), and Cyclosporin A (Cs A). […] The […] (0.25 μM for 2CMA, 0.5 μg/ml for CsA, and 10-25 units/ml for IFN-α) obtained with this assay closely resemble results from previous studies where HCV RNA level was measured (2, 6, 19, 26).
For orientation: Flow cytometry measures light scatter and fluorescence of single cells or particles in a stream.

Assay [2] shares this test system. Put plainly: Recovery of NS5A-GFP expression at 37° C. after 39° C. treatment of GS4 cells. It counts as cell-based, hepatitis C virus. Particulars: 4 days recovery at 37° C.; 100 units/ml IFN-a, 10 μg/ml aphidicolin. On the procedure:
To eliminate the possibility that these growth-arrest treatments somehow stabilize the GFP and maintain it throughout the treatment, we took advantage of our finding that 39° C. treatment results in reversible inhibition of HCV replication in our assay. We first eliminated the GFP signal from GS4 cells by incubating them at 39° C. for 4 days and then transferred the cells back to 37° C. so that HCV replication could recover. […] We tested aphidicolin and serum starvation using this assay along with IFN-α.

The next assay relates to HCV replicon. Particulars: reference 17; cited from earlier work.
In assay [3] the test system is full-length HCV RNA based on the genotype 1b HCV-N. As to conditions: reference 22; cited from earlier work.
For another assay, the system named is GS4 cells. Put plainly: Cell-cycle analysis by propidium iodide staining. It counts as cell-based. As to conditions: 4 days, 10 μg/ml shown. As for the experimental part:
as §1
Failure of growth arrest to inhibit replicon expression prompted us to examine the effect of cell-cycle perturbation on replicon expression. Propidium iodide (PI) staining of the cells permitted acquisition of dual fluorescence FACS profiles showing the cell-cycle distribution of GFP-positive and -negative cells. We found no correlation between positive GFP signal and any of the cell-cycle stages in the cycling cells (FIG. 12, no treatment). Incubation at 39° C. inhibited NS5A-GFP expression without any effect on cell-cycle profile. […] Even though confluency also affected cell cycle to a certain degree, its effect on cell-cycle progress was far less dramatic than that of aphidicolin.

The test system of assay [4] is HCV replicon (wild-type NS5A) in Huh.8 cells. Put plainly: Western blot for NS5A expression in Huh.8 replicon cells. It counts as cell-based, hepatitis C virus. Particulars: 4 days, 1 μM 2CMA, 10 μg/ml aphidicolin. On the procedure: Antibodies and western blots. An anti-NS5A monoclonal antibody was purchased from Virogen (Boston, Mass.) and an anti-Ku86 monoclonal antibody from Sigma. A monoclonal antibody against GFP was obtained from Clontech/BD Biosciences. To detect membrane-associated HCV proteins, we directly lysed the replicon cells in SDS PAGE sample buffer. We used 2×10^5 cells per 160 μl of SDS PAGE sample buffer for all our western blotting experiments. Blotting and detection were all performed according to standard procedures. For detection of Ku86 signal, the membrane was first stripped of the NS5A signal by incubation in stripping buffer (100 mM 2mercaptoethanol, 2% SDS, 62.5 mM Tris-HCl, pH 6.7) for 30 minutes at 50° C.
Additional experiments with a replicon cell line containing a wild type HCV sequence. […] Huh.8 is replicon cell line that contains the wild-type sequence of NS5A (1). Huh.8 cells were cultured under various conditions for 4 days before being analyzed by western blot for NS5A expression. […] Serum starvation actually appeared to have increased NS5A expression, as it did with the GS4 cells (FIG. 8 and data not shown).
In general terms: Immunoblotting shows a protein as a band on a membrane.

The next assay concerns HCV RNA in GS4 cells. Put plainly: Northern analysis of HCV RNA in GS4 cells. It counts as cell-based, hepatitis C virus. As to conditions: 3 days, 1 μM 2CMA, 10 μg/ml aphidicolin. On the procedure:
RNA extraction and northern blots. Total RNA was extracted with TRIzol reagent (Invitrogen, San Diego, Calif.). Equal amounts of RNA (10 μg per sample) were loaded onto formaldehyde-containing agarose gels for electrophoresis. The transfer of RNA onto a nitrocellulose membrane, random labeling of a radioactive probe, and hybridization were all performed according to standard molecular-biology protocols. The probe for detecting HCV RNA is a cDNA fragment that corresponds to nucleotides 8024 to 9563 of HCV 1 b. The exposure and detection of the radioactive signal was done with a Storm 860 phosphor-imaging system (Amersham/GE Healthcare).
To validate our results at the viral RNA level, we repeated the inhibition and rescue experiments and directly examined HCV RNA by northern blotting. GS4 cells were treated with various inhibitors/agents for 3 days before the total RNAs were subjected to northern analysis for HCV RNA.

With Interferon-α [IFN-α], in assay [1] (GS4 cells, 4 days), the “mean intensity of the GFP and percentage of GFP-positive cells” value was “effectively lowered”. Moreover, the “recovery of NS5A-GFP expression after 39° C. treatment” value in assay [2] is recorded as “efficiently blocked the recovery of the NS5A-GFP expression”.
On to TGF-β, for which the “effect on HCV RNA replication or protein expression” value in assay [1] (our system, data not shown) is on record as “only a marginal effect”.
In the case of `C[C@@]1(CO)[C@H](O)CC[C@@]2(C)[C@H]1CC[C@H]1C[C@@H]3C[C@@]12CC[C@]3(O)CO` [aphidicolin], in the assay on HCV replicon, the “effect on HCV replicon” value is “inhibitory effect”. In assay [3], the “abundance of HCV RNA or protein” value is “had no effect”. The cell-cycle arrest result in the assay on GS4 cells is “effectively arrested cell cycle at the G1/S transition”. In addition, in assay [4], the “NS5A expression (western blot)” value is “did not inhibit HCV expression”. Also, the “HCV RNA signal (northern blotting)” value in the assay on HCV RNA in GS4 cells is “only had a minimal effect”. Further, the “effect on NS5A-GFP expression” value in assay [1] (5 to 20 μg/ml, GS4 cells, 4 days) is “failed to affect NS5A-GFP expression significantly”. Further, the “recovery of NS5A-GFP expression after 39° C. treatment” value in assay [2] is reported as “did not prevent the resumption of HCV replication”.
As for `C[C@@]1(O)[C@H](O)[C@@H](CO)O[C@H]1n1cnc2c(N)ncnc21` [2CMA, 2′-C-methyl-adenosine], the “NS5A expression (western blot)” value in assay [4] is recorded as “effectively eliminated any NS5A expression”. Further, the “HCV RNA signal (northern blotting)” value in the assay with HCV RNA in GS4 cells is listed as “effectively eliminated HCV RNA signal”. The “mean intensity of the GFP and percentage of GFP-positive cells” value in assay [1] (GS4 cells, 4 days) is reported as “effectively lowered”. In assay [1] (Hepatitis C virus, 96 h, GS4 cells, 4 days treatment, flow cytometry, read-out: 1050 (NS5A-GFP expression)), the IC50 was found to be 250 nM.
